Tested on: A549 cells
Assay: Cell viability
Conditions: 24 h, 0.0005–0.1 mg/ml

Structure (SMILES): CC(C(=O)O)c1cccc(C(=O)c2ccccc2)c1 (stereo not shown) [Free KTP, Ketoprofen]
- in vitro cytotoxicity (MTT): did not show significant cytotoxicity
